Measurements from US9255122B2, “Cholate and deoxycholate-based amphiphiles for membrane protein manipulation” (Wisconsin Alumni Research Foundation, priority 2013, dated 2016).

Legend:
LHI-RC complex [1] = test system: T1, LHI-RC complex; experiment: Solubilization of LHI-RC complex from R. capsulatus intracytoplasmic membranes (pellet/supernatant absorbance spectra); parameters: species or system Rhodobacter capsulatus; conditions: for SY (%) Solubilization yield of LHI-RC complex from the membrane: 2×CMC for DPA-2, CAO, CAO-1, 10×CMC for other new agents, 50×CMC for DDM and LDAO, 32° C., 30 min
T1 construct: made in house; host or cells: Rhodobacter capsulatus U43[pUHTM86Bgl], intracytoplasmic membranes
Protocol: (§1) These two reagents were chosen as control agents for the assay. For the superassembly solubilization, the intracytoplasmic R. capsulatus membranes enriched in LHI-RC complex were treated with 10×CMC individual new agents except DPA-2; DPA-2 was tested at 2×CMC based on its high CMC value. On the other hand, conventional detergents (LDAO and DDM) were used at 50×CMC due to the small CMC value in terms of wt. %. The solubilized protein portion and insolubilized part containing cellular debris and insolubilized membranes were separated via ultracentrifugation and isolated as the supernatant and pellet, respectively. The absorption spectra of these two portions were taken to assess detergents efficacy on the protein solubilization and stabilization.
(§2) The solubilization and purification of the R. capsulatus superassembly were conducted according to the published protocol (Chae et al., ChemBioChem 2008, 9, 1706-1709). First, specialized photosynthetic membranes called intracytoplasmic membranes were obtained from an engineered strain of Rhodobacter (R.) capsulatus, U43[pUHTM86Bgl], lacking the light-harvesting complex II (LHII). The solubilization experiment began by thawing and homogenizing frozen aliquots of R. capsulatus membranes at room temperature. The solution was then incubated with mild agitation at 32° C. for 30 min. Subsequently, the solution was further incubated for 30 min after adding individual detergents (2×CMC for DPA-2, CAO and CAO-1, 10×CMC for DPA-1, […], DCAO and DCAO-2, 50×CMC for DDM and LDAO) into 1.0 mL solutions of R. capsulatus superassembly. The solution was then subjected to ultracentrifugation at 310,000 g at 4° C. for 30 min to remove membrane debris.
(§3) The spectra of solubilized supernatant and solubilized pellet were taken in a range from 650 nm to 950 nm after being homogenized. For the purification of the protein, detergent-solubilized samples were transferred into a new 1.7 mL microcentrifuge tube containing Ni-NTA resin (Qiagen, Inc.; Valencia, Calif.; pre-equilibriated and stored in an equal volume of buffer containing 10 mM Tris, pH 7.8, and 100 mM NaCl). Following one-hour incubation at 4° C. for protein binding, the resins were collected and washed twice with 0.5 mL of binding buffer (a pH 7.8 Tris solution containing DDM at 1×CMC). Purified protein solution were collected by eluting three times with 0.20 mL elution buffer solutions containing 1 M imidazole (otherwise, this buffer was identical to binding buffer; the pH of each solution was readjusted to pH=7.8) and diluted with 0.4 mL of the binding buffer to reach 1.0 mL solution. UV-Vis spectra of the superassembly purified in individual detergents were then taken to assess the stability of the protein.

[2] = Water solubility and hydrogel formation of amphiphiles; format: physicochemical
Protocol: The amphiphiles prepared, except LDAO and DCAO, are water-soluble at up to 10 wt. %. […] DCAO was initially soluble, at approximately 1.0 wt. %, but tends to form a hydrogel over time at concentrations of greater than about 0.3 wt. %. Critical micelle concentration (CMC) values were estimated by using a hydrophobic fluorescent dye, diphenyhexatriene (DPH) (see Laible et al., Biochemistry 2003, 42, 1718-1730).
The CMC values were determined for CAO-1 (˜7.2 mM; ˜0.38 wt. %) and DCAO-2 (˜1.1 mM; ˜0.056 wt. %), which are similar to those of their parent compounds, CAO and DCAO, respectively (see Table 2.1 above). […] All of these cholate and deoxycholate-based agents preserved the native conformation of the superassembly during protein solubilization and purification processes.

LHI-RC complex [3] = test system: T1, LHI-RC complex; experiment: Integrity of detergent-solubilized and Ni-NTA-purified LHI-RC complexes by UV-Vis absorption spectra; parameters: species or system Rhodobacter capsulatus; conditions: purified protein eluted at 1×CMC detergent
Description: The presence of various types of cofactors such as bacteriochlorophyll and carotenoids embedded in the complexes, thereby providing a well-featured UV-Vis absorption spectrum, facilitates the assessment of the protein integrity for a set of detergents via optical spectrophotometry. The native conformation of the protein is represented by a very strong peak at 875 nm in its absorption spectrum, while the intact RC but denatured LHI, or denatured LHI and RC, produce rather intense peaks at ˜800 nm and ˜760 nm, respectively.
as §1
For the purification, the detergent-solubilized protein samples were subjected to a metal affinity column chromatography and eluted with the elution buffer containing 1M imidazole and 1×CMC individual detergents. The UV-Visible spectra of the resulting protein samples were taken to investigate the integrity of detergent-purified LHI-RC complexes.
as §2, §3

[4] = Critical micelle concentration (CMC) estimated with hydrophobic fluorescent dye diphenylhexatriene (DPH); format: physicochemical
Description: The “Critical Micelle Concentration” (CMC) refers to the concentration of a detergent (e.g., an amphiphile as described herein) in an aqueous solution at which the detergent molecules self-assemble into micelles. Below the CMC, detergents are mostly monomeric; above the CMC, micelle concentration increases linearly with detergent concentration. The CMC is dependent upon many factors and is detergent-specific. The CMC of a detergent can be determined experimentally by measuring the solubilization of a water-insoluble dye or fluorophore while varying the concentration of detergent. A CMC may also be determined by measuring the diminution of the surface tension of an aqueous solution as a function of detergent concentration (CMCs determined by either method correlate with each other). The CMC is determined by extrapolating the plot of solubilization vs. concentration (or surface tension vs. concentration) in the two linear regions above and below the CMC. Where the two lines intersect is the CMC.
The Critical Micelle Concentrations (CMCs) of compounds of the invention can be determined by standard techniques known to those of skill in the art. For example, CMCs of CAO and DCAO can be determined by monitoring uptake of a fluorescent dye (e.g., a dye such as 1,6-diphenylhexatriene) with increasing detergent concentration, monitored by fluorescence spectroscopy.

LHI-RC complex [5] = test system: T1, LHI-RC complex; experiment: Long-term stability of LHI-RC complexes, absorbance ratio A875/A680 over 20-day incubation at room temperature; parameters: species or system Rhodobacter capsulatus; conditions: for native conformation retained by detergent-purified proteins: after 20 day-incubation at room temperature; for long-term stability of superassembly (A875/A680), in words: room temperature
Protocol: The favorable properties of CAO and DCAO in terms of membrane protein stabilization prompted further evaluation of these reagents' ability to stabilize protein superassemblies as a function of time. DDM-purified samples were diluted with solutions containing CAO or LDAO. […] Protein stability was monitored over time at room temperature by measuring absorbance ratios (A875/A680) (absorption at 680 nm arises from the oxidation of bacteriochlorophyll dissociated from LHI upon denaturation). […] Of note, DCAO was not evaluated in this long-term stability of the superassembly due to its high tendency to form a hydrogel at this high concentration.
R. capsulatus superassembly was purified in DDM according to the protocol described above. The DDM-purified sample was then diluted to the solutions containing individual detergents (CAO, CAO-1, DCAO, DCAO-2, DDM and LDAO). The dilution makes DDM concentration reached far below its CMC and the final individual detergent concentration at CMC+0.04 wt % or CMC+1.0 wt %. The spectra of individual detergents-solubilized LHI-RC complexes were taken in a range of 650 nm to 950 nm at regular intervals over 20 days during the incubation at room temperature. Protein integrity in each sample was assessed via changes in absorbance ratio (A875/A680) with time.
Similar criteria and protocols were used to judge the ability of amphiphiles to maintain solubilized and purified superassembly for extended periods. In this case, UV Vis-nearIR spectra were recorded at regular intervals. The degradation of the material could be monitored with the A875/A680 absorbance ratio, which decreased with time and sample integrity as the dominant 875 nm absorption of intact LHI disappeared and a 680 nm band appeared, indicating the presence of unbound, oxidized cofactors.

[6] = estimated with DPH, Example 2, Table 2.1
[7] = at CMC+0.04 wt. % and CMC+1.0 wt. %, 20 days

T1 sequence (P11847 whole entry): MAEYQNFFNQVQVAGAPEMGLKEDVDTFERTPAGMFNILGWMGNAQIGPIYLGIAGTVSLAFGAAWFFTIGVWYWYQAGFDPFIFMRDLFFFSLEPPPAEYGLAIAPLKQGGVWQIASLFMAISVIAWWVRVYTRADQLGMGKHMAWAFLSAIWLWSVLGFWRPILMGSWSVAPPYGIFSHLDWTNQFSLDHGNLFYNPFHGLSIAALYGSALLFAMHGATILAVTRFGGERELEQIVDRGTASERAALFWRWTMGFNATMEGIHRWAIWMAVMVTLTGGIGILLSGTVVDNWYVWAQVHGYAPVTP
T1 sequence (P19057 whole entry, further chain): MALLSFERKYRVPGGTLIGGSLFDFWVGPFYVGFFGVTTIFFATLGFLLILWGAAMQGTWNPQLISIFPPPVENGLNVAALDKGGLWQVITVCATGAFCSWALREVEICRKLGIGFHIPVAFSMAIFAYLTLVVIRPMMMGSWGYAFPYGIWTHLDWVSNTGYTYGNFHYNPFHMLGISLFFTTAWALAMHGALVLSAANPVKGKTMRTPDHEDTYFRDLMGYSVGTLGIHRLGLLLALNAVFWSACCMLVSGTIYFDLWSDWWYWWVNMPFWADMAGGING
T1 sequence (P19056 whole entry, further chain): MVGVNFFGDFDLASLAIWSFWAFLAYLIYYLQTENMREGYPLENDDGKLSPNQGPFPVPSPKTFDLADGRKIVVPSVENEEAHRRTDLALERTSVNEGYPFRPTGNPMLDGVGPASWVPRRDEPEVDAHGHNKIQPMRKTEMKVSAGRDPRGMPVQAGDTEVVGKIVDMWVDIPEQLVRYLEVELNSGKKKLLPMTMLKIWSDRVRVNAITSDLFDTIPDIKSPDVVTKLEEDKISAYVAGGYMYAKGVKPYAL
T1 sequence (P02948 whole entry, further chain): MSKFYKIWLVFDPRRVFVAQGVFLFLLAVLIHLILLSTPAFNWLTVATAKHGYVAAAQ
T1 sequence (P02950 whole entry, further chain): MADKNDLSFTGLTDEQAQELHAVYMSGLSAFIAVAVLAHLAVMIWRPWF

| Structure (SMILES) | SY (%) Solubilization yield of LHI-RC complex from the membrane (LHI-RC complex [1]) [%] | native structure of LHI-RC complexes after solubilization and purification (in words) (LHI-RC complex [3]) | CMC [4, 6] [mM] | CMC (wt. %) [4, 6] [wt. %] | CMC ([4]; Example 3, Table 3-2) [mM] | CMC (%) ([4]; Example 3, Table 3-2) | also measured |
| --- | --- | --- | --- | --- | --- | --- | --- |
| CCCCCCCCCCCC[N+](C)(C)[O-] [LDAO, lauryldimethylamine oxide, reference compound] | ~100 | native protein conformation mostly destroyed | ~1.0 | ~0.023 |  |  | extraction/solubilization of LHI-RC complexes (in words) (LHI-RC complex [1]): extracted the complexes almost quantitatively; water solubility (in words) [2]: insoluble in water |
| C[C@H](CCC(=O)NCCC[N+](C)(C)CCCS(=O)(=O)[O-])[C@H]1CC[C@H]2[C@@H]3[C@H](O)C[C@@H]4C[C@H](O)CC[C@]4(C)[C@H]3C[C@H](O)[C@]12C [CHAPS, 3-[(3-cholamidopropyl)-dimethylammonio]-1-propanesulfonate, reference compound] | ~50 | without structural degradation | ~8.0 |  | 8 | 0.49 | native conformation retained by detergent-purified proteins (LHI-RC complex [5]): ~65% |
| C[C@H](CCC(=O)NCCC[N+](C)(C)CC(O)CS(=O)(=O)[O-])[C@H]1CC[C@H]2[C@@H]3[C@H](O)C[C@@H]4C[C@H](O)CC[C@]4(C)[C@H]3C[C@H](O)[C@]12C (stereo partly drawn) [CHAPSO, 3-[(3-cholamidopropyl)-dimethylammonio]-2-hydroxy-1-propanesulfonate, reference compound] | ~50 |  |  |  | 8 | 0.5 | native conformation retained by detergent-purified proteins (LHI-RC complex [5]): ~65% |
| CC(CCC(=O)N(C)CCC[N+](C)(C)[O-])C1CCC2C3C(O)CC4CC(O)CCC4(C)C3CC(O)C12C (stereo not drawn) [CAO-1] | ~20 |  | ~7.2 | ~0.36 |  |  | long-term stability of superassembly (A875/A680), in words (LHI-RC complex [5]; [7]): clearly superior to DDM |
| CC(CCC(=O)NCCC[N+](C)(C)[O-])C1CCC2C3CCC4CC(O)CCC4(C)C3CC(O)C12C (stereo not drawn) [DCAO] | ~70 | fully retained as effectively as DDM | ~1.3 | ~0.064 | 1.0 | 0.049 | hydrogel formation (in words) [2]: did not form a hydrogel; concentration at which a hydrogel tends to form over time ([2]; in water): greater than 0.3 wt. %; water solubility ([2]; water-soluble at up to the stated concentration): approximately 1.0 wt. %; long-term stability of superassembly (A875/A680), in words (LHI-RC complex [5]; detergent at CMC+0.04 wt. %): more stable than DDM-solubilized protein; CMC fold lower than that of CHAPS or CHAPSO [4]: approximately 8 fold |
| C[N+](C)([O-])CCCNC(=O)CC1(C2CCCC2)CCCCCC1 [DPA-1, 3-(2-(1-cyclopentylcycloheptyl)acetamido)-N,N-dimethylpropan-1-amine oxide] | ~100 | A similar trend was observed | ~13 | ~0.24 |  |  |  |
| C[N+](C)([O-])CCCNC(=O)CC(c1ccccc1)c1ccccc1 [DPA-2, reference compound] | ~15 |  | ~78 | ~2.5 |  |  |  |
| CC(CCC(=O)NCCC[N+](C)(C)[O-])C1CCC2C3C(O)CC4CC(O)CCC4(C)C3CC(O)C12C (stereo not drawn) [CAO] | ~30 | fully retained as effectively as DDM | ~8.3 | ~0.42 | 7.1 | 0.36 | long-term stability of superassembly (A875/A680), in words (LHI-RC complex [5]; [7]): clearly superior to DDM; long-term stability of superassembly (A875/A680), in words (LHI-RC complex [5]; detergent at CMC+0.04 wt. %): more stable than DDM-solubilized protein; long-term stability of superassembly (A875/A680), in words (LHI-RC complex [5]; detergent at CMC+1.0 wt. %): efficacy difference between CAO and DDM was more prominent |
| C[N+](C)([O-])CCCNC(=O)CC(C1CCCCC1)C1CCCCC1 [DPA-3, reference compound] | ~95 | protein degradation observed for DPA-3 was much less than that observed for DPA-1 | ~4.9 | ~0.17 |  |  |  |
| CCCCCCCCCCCCO[C@@H]1O[C@H](CO)[C@@H](O[C@H]2O[C@H](CO)[C@@H](O)[C@H](O)[C@H]2O)[C@H](O)[C@H]1O [DDM, n-dodecyl-β-D-maltoside, reference compound] | ~70 |  | ~0.17 | ~0.0087 |  |  |  |
